Data reported in patent US20200239530A1, “COMPOUNDS AND METHODS OF MODULATING PROTEIN DEGRADATION” (Vividion Therapeutics, Inc., priority 2017, published 2020).

Assays:
Test in all cases: Cysteine liganding, probe competition
Assay type in all cases: binding
[1] = molecular target: T1, VRK3 Inactive serine/threonine-protein kinase VRK3 (Homo sapiens, UniProt Q8IV63)
T1 construct: Cells were resuspended in cold PBS on ice and sonicated with a probe sonicator to achieve lysis; endogenous in cells
T1 sequence (Q8IV63 1-474): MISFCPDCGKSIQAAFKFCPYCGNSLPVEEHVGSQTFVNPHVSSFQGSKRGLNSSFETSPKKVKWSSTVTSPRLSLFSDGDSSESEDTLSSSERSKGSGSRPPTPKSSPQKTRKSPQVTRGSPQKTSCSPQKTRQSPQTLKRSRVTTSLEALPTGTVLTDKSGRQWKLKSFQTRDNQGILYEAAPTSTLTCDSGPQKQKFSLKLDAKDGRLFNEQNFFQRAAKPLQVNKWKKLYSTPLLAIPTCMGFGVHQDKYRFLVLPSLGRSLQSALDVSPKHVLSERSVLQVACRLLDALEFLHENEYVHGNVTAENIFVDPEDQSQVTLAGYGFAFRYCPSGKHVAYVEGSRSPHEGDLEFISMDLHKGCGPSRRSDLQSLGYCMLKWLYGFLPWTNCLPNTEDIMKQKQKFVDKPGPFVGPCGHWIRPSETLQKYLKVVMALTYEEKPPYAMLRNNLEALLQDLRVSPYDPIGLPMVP
Outline: (§1)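 Lysates from probe-sonicated cells in PBS (5 mg/ml proteome) were exposed to compound for 1 hr at 25° C, then labelled with desthiobiotin iodoacetamide probe (10 mM stock) for 1 hr at 25° C. Probe-tagged peptides were streptavidin-enriched after trypsin digestion.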

[2] = molecular target: T2, HADHB Trifunctional enzyme subunit beta, mitochondrial (Homo sapiens, UniProt P55084)
T2 construct: Cells were resuspended in cold PBS on ice and sonicated with a probe sonicator to achieve lysis; endogenous in cells
Outline: as §1

[3] = molecular target: T3, AKAP1 A-kinase anchor protein 1, mitochondrial (Homo sapiens, UniProt Q92667)
T3 construct: Cells were resuspended in cold PBS on ice and sonicated with a probe sonicator to achieve lysis; endogenous in cells
T3 sequence (Q92667 30-903): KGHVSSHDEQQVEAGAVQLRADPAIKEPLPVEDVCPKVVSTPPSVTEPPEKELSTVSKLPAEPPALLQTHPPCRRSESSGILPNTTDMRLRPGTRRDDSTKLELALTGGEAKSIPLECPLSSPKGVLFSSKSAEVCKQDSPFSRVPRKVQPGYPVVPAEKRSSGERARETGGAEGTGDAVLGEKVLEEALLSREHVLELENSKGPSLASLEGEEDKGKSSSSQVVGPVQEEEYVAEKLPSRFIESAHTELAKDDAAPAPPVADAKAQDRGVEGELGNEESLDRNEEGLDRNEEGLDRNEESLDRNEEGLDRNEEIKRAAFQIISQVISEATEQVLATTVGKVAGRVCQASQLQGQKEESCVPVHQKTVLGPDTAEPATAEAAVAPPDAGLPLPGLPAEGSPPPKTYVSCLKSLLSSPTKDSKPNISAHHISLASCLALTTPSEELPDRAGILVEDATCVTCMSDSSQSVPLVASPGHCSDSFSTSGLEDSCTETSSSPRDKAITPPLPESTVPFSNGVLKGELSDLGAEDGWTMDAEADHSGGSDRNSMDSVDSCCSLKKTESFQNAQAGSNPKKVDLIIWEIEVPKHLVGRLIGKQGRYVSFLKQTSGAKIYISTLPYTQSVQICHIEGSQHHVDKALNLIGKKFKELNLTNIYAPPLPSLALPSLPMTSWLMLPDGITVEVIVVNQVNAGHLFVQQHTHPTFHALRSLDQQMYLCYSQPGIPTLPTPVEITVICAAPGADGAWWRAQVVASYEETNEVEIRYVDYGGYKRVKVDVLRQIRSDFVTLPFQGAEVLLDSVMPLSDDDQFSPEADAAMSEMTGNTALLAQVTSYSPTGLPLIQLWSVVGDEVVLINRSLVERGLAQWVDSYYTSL
Outline: as §1

T2 sequence (P55084 34-474): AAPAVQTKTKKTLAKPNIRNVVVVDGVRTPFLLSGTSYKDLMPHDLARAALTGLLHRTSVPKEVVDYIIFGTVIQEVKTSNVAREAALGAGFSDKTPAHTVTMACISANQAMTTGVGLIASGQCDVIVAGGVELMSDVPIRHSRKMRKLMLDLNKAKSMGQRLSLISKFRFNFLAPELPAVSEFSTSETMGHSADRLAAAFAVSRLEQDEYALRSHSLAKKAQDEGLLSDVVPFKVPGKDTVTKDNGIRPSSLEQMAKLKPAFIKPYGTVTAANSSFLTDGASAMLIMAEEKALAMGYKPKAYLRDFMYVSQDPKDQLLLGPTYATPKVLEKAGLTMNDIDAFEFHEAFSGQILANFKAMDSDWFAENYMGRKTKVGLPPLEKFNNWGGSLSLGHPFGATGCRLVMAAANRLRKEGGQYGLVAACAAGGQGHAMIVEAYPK
T2 sequence (P40939 37-763 partner): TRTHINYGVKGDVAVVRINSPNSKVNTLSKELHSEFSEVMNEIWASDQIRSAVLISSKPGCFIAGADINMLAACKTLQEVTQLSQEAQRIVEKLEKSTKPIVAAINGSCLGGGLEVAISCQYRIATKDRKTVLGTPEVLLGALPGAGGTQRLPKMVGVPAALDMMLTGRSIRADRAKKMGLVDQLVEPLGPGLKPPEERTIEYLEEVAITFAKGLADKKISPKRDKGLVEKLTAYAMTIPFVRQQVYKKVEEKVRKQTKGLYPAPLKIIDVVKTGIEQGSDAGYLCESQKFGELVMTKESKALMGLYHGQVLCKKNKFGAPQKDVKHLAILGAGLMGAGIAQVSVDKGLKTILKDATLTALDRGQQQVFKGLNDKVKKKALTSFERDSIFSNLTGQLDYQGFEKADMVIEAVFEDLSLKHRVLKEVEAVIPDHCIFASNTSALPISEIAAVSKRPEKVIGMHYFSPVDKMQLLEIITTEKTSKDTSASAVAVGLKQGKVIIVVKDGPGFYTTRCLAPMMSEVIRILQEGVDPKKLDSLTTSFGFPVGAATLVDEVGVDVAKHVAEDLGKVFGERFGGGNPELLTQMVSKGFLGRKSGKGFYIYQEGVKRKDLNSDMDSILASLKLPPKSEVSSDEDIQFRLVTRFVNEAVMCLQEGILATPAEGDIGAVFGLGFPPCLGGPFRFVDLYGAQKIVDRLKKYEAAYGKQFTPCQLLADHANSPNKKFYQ

SMILES	Liganded ([1]; VRK3 Res# 191, uniprot Q8IV63)	Liganded ([2]; HADHB Res# 458, uniprot P55084)	Liganded ([3]; AKAP1 Res# 376, uniprot Q92667)	100 Max ([1]; uniprot Q8IV63)	100 ave ([1]; uniprot Q8IV63)	500 ave ([1]; uniprot Q8IV63)	500 Max ([1]; uniprot Q8IV63, in % (unit assumed))	100 Max ([2]; uniprot P55084)	100 ave ([2]; uniprot P55084)	500 Max ([2]; uniprot P55084)	500 ave ([2]; uniprot P55084)	100 ave ([3]; uniprot Q92667)	500 Max ([3]; uniprot Q92667)	500 ave ([3]; uniprot Q92667)	100 Max ([3]; uniprot Q92667, in % (unit assumed))
COc1ccc2c(c1)CCCN2C(=O)CCl [KB02]	YES	YES	YES												
O=C(CCl)Nc1cc(C(F)(F)F)cc(C(F)(F)F)c1 [KBO3]				−8.38	−10.03	14.41	14.41	26.24	15.245	64.33	60.9	−0.33	57.81	45.04	18.92
